Laboratory results published in PubChem BioAssay (NCI).
Values joined by “and” are separate entries in the source; they are usually repeats but may differ in a detail not shown here. Identical values can stand only once.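 Method: 48-hour compound exposure of cells in 96-well plates, five concentrations, linear interpolation of endpoints. Abbreviation: GI50, concentration required for 50% inhibition of growth. At the TGI there is no net growth.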

What was measured:
Experiment in all cases: NCI tumour cell line growth inhibition, 48 h
DLD-1 colon = test system: DLD-1 colon
LXFL 529 NSCLC = test system: LXFL 529 NSCLC
XF 498 CNS = test system: XF 498 CNS
DU-145 prostate = test system: DU-145 prostate
HS 578T breast = test system: HS 578T breast
MCF7 breast = test system: MCF7 breast
MDA-N = test system: MDA-N
HOP-18 NSCLC = test system: HOP-18 NSCLC
RXF-631 renal = test system: RXF-631 renal
P388 leukemia = test system: P388 leukemia
P388/ADR leukemia = test system: P388/ADR leukemia
SN12K1 renal = test system: SN12K1 renal

Structure (SMILES)	TGI (DLD-1 colon)	TGI (LXFL 529 NSCLC)	TGI (XF 498 CNS)	TGI (DU-145 prostate)	TGI (HS 578T breast)	TGI (MCF7 breast)	TGI (MDA-N)	TGI (HOP-18 NSCLC)	TGI (RXF-631 renal)	also measured
COC(=O)/C(=N\NC(N)=S)C(C#N)c1ccccc1 (stereo not drawn)	> 100 µM	> 100 µM	> 100 µM	–	–	–	–	–	–	–
Cc1cc([N+](=O)[O-])c(C)c(Br)c1C	–	–	–	> 100 µM	> 100 µM	> 100 µM	> 100 µM	–	–	–
CC1CCC2N(C1)CC1C3(O)CC45OC6(O)C(O)CCC4(C)C6CCC5C3(O)CC(O)C1(O)C2(C)O (stereo not drawn)	–	–	–	> 100 µM	> 100 µM	> 100 µM	> 100 µM	–	–	–
COc1cc2cc3c4c(cc(OC)c(OC)c4c2cc1OC)CCN3C(=O)CCC(=O)NCCCN(C)C	30.9 µM	> 100 µM	> 100 µM	–	–	–	–	> 100 µM	–	–
COc1ccc(S(=O)(=O)N(C)CC(=O)O)cc1	> 100 µM	> 100 µM	> 100 µM	–	–	–	–	> 100 µM	> 100 µM	–
C/C(CC(=O)N(C(C)C)C(C)C)=N\NC(=O)c1ccncc1	> 100 µM	> 100 µM	> 100 µM	–	–	–	–	> 100 µM	> 100 µM	–
N#CC1C=Cc2ccccc2N1C(=O)Oc1ccccc1 (stereo not drawn)	–	–	–	93.8 µM	> 100 µM	> 100 µM	> 100 µM	–	–	–
COc1ccc(OC)c2c3c(ccc12)C(c1ccccc1)OC3=O (stereo not drawn)	> 100 µM	> 100 µM	–	–	–	–	–	> 100 µM	–	–
COc1ccc2nc3ccccc3c(NCCCCN(C)CCCl)c2c1	0.964 µM	0.189 µM	0.293 µM	–	–	0.172 µM	–	–	0.367 µM	–
N=C1C=C(N)C(=O)c2[nH]c(=O)ccc21	–	–	–	21.4 µM	> 100 µM	1.78 µM	2.28 µM	–	–	–
COc1cccc(NC(=O)C(=O)C(C(C)=O)c2nc3ccc(Cl)cc3[nH]c2=O)c1 (stereo not drawn)	> 100 µM	> 100 µM	–	–	–	–	–	> 100 µM	> 100 µM	–
CC(C)C(=O)Oc1cc2c(=O)oc3c(OC(=O)C(C)C)c(OC(=O)C(C)C)cc4c(=O)oc(c1OC(=O)C(C)C)c2c34	–	–	–	> 100 µM	> 100 µM	> 100 µM	> 100 µM	–	–	–
C[C@@H]1C[C@]2(C[C@@H](C)C3[C@@H](CC4(C)[C@@H]5CCC6C(C)(C)OC(=O)C=C[C@]67C[C@@]5(CC[C@]34C)OO7)O2)OC1=O (stereo partly drawn)	> 100 µM	> 100 µM	73.9 µM	–	–	–	–	> 100 µM	–	–
CC(=O)Oc1ccc2c(c1)CC[C@@H]1C2CC[C@]2(C)C(=O)NC(=O)CC12 (stereo partly drawn)	–	–	–	> 100 µM	> 100 µM	> 100 µM	> 100 µM	–	–	–
C/C=C1\C(=O)OC2CCN3CCC(COC(=O)C(C)(O)C(C)C1O)C23 (stereo not drawn)	–	–	–	> 100 µM	> 100 µM	> 100 µM	> 100 µM	–	–	–
FC1OC2OC1C(OCc1ccccc1)C(OCc1ccccc1)C2OCc1ccccc1 (stereo not drawn)	> 100 µM	> 100 µM	> 100 µM	–	–	–	–	96.4 µM	> 100 µM	–
S=c1nc(-c2ccnc(-c3nc(=S)[nH][nH]3)c2)[nH][nH]1	> 100 µM	> 100 µM	> 100 µM	–	–	–	–	> 100 µM	–	–
CC1OC(OC2CCC3(C=O)C4CCC5(C)C(C6=CC(=O)OC6)CCC5(O)C4CCC3(O)C2)C(O)C(O)C1O (stereo not drawn)	–	–	–	1.75e-05 µM	> 100 µM	–	7.94e-05 µM	–	–	–
Nc1ccc(S(=O)(=O)Nc2cnc3c(Cl)cccc3n2)cc1	> 655 µM	–	719 µM	> 750 µM	> 79.5 µM and 504 µM	> 721 µM	> 566 µM	> 750 µM	–	GI50 (HS 578T breast): 16.3 µM; GI50 (MCF7 breast): 45.3 µM; GI50 (MDA-N): > 66.9 µM; TGI (P388 leukemia): > 750 µM; TGI (P388/ADR leukemia): > 750 µM; TGI (SN12K1 renal): 472 µM
O=C(c1ccc(Cl)cc1)C1OC12C(=O)Nc1ccccc12 (stereo not drawn)	6.29 µM	11.8 µM	25 µM	33.8 µM	44.6 µM	–	14.5 µM	27 µM	34.7 µM	–
COc1ccc(CCc2cc(OC)c(OC)c(OC)c2)cc1	> 100 µM	21 µM	20.6 µM	5.62 µM	> 100 µM	> 100 µM	0.021 µM	> 100 µM	4.45 µM	–
CC(=O)C1C(=O)N(C(C)C)C[C@@H]2CCC(=O)C[C@H]12 (stereo partly drawn)	> 100 µM	> 100 µM	> 100 µM	–	–	–	–	–	> 100 µM	–
CCOc1ccc(C(CN2CCOCC2)C(C)=O)cc1OC (stereo not drawn)	27.9 µM	17 µM	40.8 µM	–	–	–	–	30.2 µM	–	–
Cc1nc(-n2nc(-c3ccccc3)cc2-c2ccccc2)sc1C(/C=C/c1ccc([N+](=O)[O-])cc1)=N/NC(=O)c1ccncc1	33.2 µM	43.2 µM	–	–	–	–	–	–	–	–
CC1=NN(C(=O)c2ccccc2O)C(=O)/C1=C/c1cccc([N+](=O)[O-])c1	> 100 µM	> 100 µM	–	> 100 µM	–	> 100 µM	> 100 µM	–	–	–
